Legend:
Caco-2 cell monolayers = test: Caco-2 permeation assay; type: in vitro ADME, human; conditions: 5 μM, A to B, + Verapamil 25 μM, 120 minutes
Text: Assay 5: Caco-2 Permeation Assay

JAK3 = JAK3 (Homo sapiens (Human), UniProt P52333); test: Biochemical JAK and Tyk2 kinase assays (LanthaScreen): JAK3; conditions: for Ki / JAK 3 (pKi): 1 h pre-incubation, ATP at Km, pIC50 converted to pKi by Cheng-Prusoff; for Ki: read-out: JAK 3 (pKi) (converted); for JAK3 (pKi)-JAK1 (pKi): difference of pKi values, selectivity JAK3 over JAK1
Protocol: (§1) Assay 1: Biochemical JAK and Tyk2 Kinase Assays
(§2) A panel of four LanthaScreen JAK biochemical assays (JAK1, 2, 3 and Tyk2) were carried in a common kinase reaction buffer (50 mM HEPES, pH 7.5, 0.01% Brij-35, 10 mM MgCl2, and 1 mM EGTA). Recombinant GST-tagged JAK enzymes and a GFP-tagged STAT1 peptide substrate were obtained from Life Technologies.
(§3) Serially or discretely diluted compounds were pre-incubated with each of the four JAK enzymes and the substrate in white 384-well microplates (Corning) at ambient temperature for 1 h. ATP was subsequently added to initiate the kinase reactions in 10 μL total volume, with 1% DMSO. […] Kinase reactions were allowed to proceed for 1 hour at ambient temperature before a 10 μL preparation of EDTA (10 mM final concentration) and Tb-anti-pSTAT1 (pTyr701) antibody (Life Technologies, 2 nM final concentration) in TR-FRET dilution buffer (Life Technologies) was added. The plates were allowed to incubate at ambient temperature for 1 h before being read on the EnVision reader (Perkin Elmer). Emission ratio signals (520 nm/495 nm) were recorded and utilized to calculate the percent inhibition values based on DMSO and background controls.
(§4) For dose-response analysis, percent inhibition data were plotted vs. compound concentrations, and IC50 values were determined from a 4-parameter robust fit model with the Prism software (GraphPad Software). Results were expressed as pIC50 (negative logarithm of IC50) and subsequently converted to pKi (negative logarithm of dissociation constant, Ki) using the Cheng-Prusoff equation.

Tyk2 = Tyk2 (Homo sapiens (Human), UniProt P29597); test: Biochemical JAK and Tyk2 kinase assays (LanthaScreen): Tyk2; conditions: 1 h pre-incubation, ATP at Km; pIC50 converted to pKi by Cheng-Prusoff
Protocol: as §1, §2, §3, §4

[1] = test system: IL-2 stimulated pSTAT5 in Tall-1 T cells (JAK3); test: Cellular JAK3 potency assay: inhibition of IL-2 stimulated pSTAT5 in Tall-1 T cells; type: cell-based; conditions: IL-2 300 ng/ml, pSTAT5 AlphaLisa, Tall-1 human T cell line; read-out: Tall-1 (pIC50) (converted)
Protocol: Assay 2: Cellular JAK3 Potency Assay: Inhibition of IL-2 Stimulated pSTAT5 in Tall-1 T Cells
The potency of test compounds for inhibition of interleukin-2 (IL-2) stimulated STATS phosphorylation was measured in the Tall-1 human T cell line (DSMZ) using AlphaLisa. Because IL-2 signals through JAK3, this assay provides a measure of JAK3 cellular potency.
Phosphorylated STATS was measured via the AlphaLISA SureFire Ultra pSTAT5 (Tyr694/699) kit (PerkinElmer).
Human T cells from the Tall-1 cell line were cultured in a 37° C., 5% CO2 humidified incubator in RPMI (Life Technologies) supplemented with 15% Heat Inactivated Fetal Bovine Serum (FBS, Life Technologies), 2 mM Glutamax (Life Technologies), 25 mM HEPES (Life Technologies) and 1× Pen/Strep (Life Technologies). Compounds were serially diluted in DMSO and dispensed acoustically to empty wells. Assay media (phenol red-free DMEM (Life Technologies) supplemented with 10% FBS (ATCC)) was dispensed (4 μL/well) and plates shaken at 900 rpm for 10 mins. Cells were seeded at 45,000 cells/well in assay media (4 μL/well), and incubated at 37° C., 5% CO2 for 1 hour, followed by the addition of IL-2 (R&D Systems; final concentration 300 ng/ml) in pre-warmed assay media ([…]) for 30 minutes. After cytokine stimulation, cells were lysed with 6 ul of 3× AlphaLisa Lysis Buffer (PerkinElmer) containing 1× PhosStop and Complete tablets (Roche). The lysate was shaken at 900 rpm for 10 minutes at room temperature (RT). Phosphorylated STATS was measured via the pSTAT5 AlphaLisa kit (PerkinElmer). Freshly prepared acceptor bead mixture was dispensed onto lysate (5 μL) under green filtered <100 lux light. Plates were shaken at 900 rpm for 2 mins, briefly spun down, and incubated for 2 hrs at RT in the dark. Donor beads were dispensed (5 μL) under green filtered <100 lux light. Plates were shaken at 900 rpm for 2 minutes, briefly spun down, and incubated overnight at RT in the dark. Luminescence was measured with excitation at 689 nm and emission at 570 nm using an EnVision plate reader (PerkinElmer) under green filtered <100 lux light.
To determine the inhibitory potency of test compounds in response to IL-2, the average emission intensity of beads bound to pSTAT5 was measured in a human T cell line. IC50 values were determined from analysis of the inhibition curves of signal intensity versus compound concentration. Data are expressed as pIC50 (negative decadic logarithm IC50) values (mean±standard deviation).

JAK1 = JAK1 (Homo sapiens (Human), UniProt P23458); test: Biochemical JAK and Tyk2 kinase assays (LanthaScreen): JAK1; conditions: 1 h pre-incubation, ATP at Km; pIC50 converted to pKi by Cheng-Prusoff
Protocol: as §1, §2, §3, §4

JAK2 = JAK2 (Homo sapiens (Human), UniProt O60674); test: Biochemical JAK and Tyk2 kinase assays (LanthaScreen): JAK2; conditions: 1 h pre-incubation, ATP at Km; pIC50 converted to pKi by Cheng-Prusoff
Protocol: as §1, §2, §3, §4

Sequence of JAK2 (O60674 whole entry): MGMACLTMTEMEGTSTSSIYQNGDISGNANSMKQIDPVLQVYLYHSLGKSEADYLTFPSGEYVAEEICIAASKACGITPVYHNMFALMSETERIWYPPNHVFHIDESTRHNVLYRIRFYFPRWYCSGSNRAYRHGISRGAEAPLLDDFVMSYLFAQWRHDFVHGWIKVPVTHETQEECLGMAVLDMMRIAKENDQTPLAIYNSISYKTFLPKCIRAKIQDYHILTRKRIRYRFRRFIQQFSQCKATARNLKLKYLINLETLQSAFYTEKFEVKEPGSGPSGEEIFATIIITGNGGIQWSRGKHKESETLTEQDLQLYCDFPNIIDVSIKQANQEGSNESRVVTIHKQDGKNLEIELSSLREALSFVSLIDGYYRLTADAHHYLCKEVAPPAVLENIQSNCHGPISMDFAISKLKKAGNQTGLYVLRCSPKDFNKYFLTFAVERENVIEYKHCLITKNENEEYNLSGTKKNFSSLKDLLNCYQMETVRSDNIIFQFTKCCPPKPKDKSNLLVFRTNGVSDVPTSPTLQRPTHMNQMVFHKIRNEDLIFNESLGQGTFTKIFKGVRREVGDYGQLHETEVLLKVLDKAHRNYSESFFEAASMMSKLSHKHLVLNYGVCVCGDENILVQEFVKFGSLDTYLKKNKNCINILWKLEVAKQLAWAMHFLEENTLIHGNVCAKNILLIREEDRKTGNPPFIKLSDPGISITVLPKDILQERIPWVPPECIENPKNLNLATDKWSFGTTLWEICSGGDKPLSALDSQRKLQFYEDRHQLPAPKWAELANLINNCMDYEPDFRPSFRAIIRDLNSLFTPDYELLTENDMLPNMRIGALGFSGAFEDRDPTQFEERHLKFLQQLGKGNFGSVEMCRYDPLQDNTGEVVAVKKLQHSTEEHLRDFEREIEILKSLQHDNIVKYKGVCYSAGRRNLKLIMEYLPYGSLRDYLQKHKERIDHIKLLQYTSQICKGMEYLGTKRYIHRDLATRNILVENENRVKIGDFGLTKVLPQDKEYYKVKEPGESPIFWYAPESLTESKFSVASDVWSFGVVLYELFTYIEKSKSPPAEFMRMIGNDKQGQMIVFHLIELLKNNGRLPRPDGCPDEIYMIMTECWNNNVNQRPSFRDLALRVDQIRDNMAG
Sequence of JAK1 (P23458 whole entry): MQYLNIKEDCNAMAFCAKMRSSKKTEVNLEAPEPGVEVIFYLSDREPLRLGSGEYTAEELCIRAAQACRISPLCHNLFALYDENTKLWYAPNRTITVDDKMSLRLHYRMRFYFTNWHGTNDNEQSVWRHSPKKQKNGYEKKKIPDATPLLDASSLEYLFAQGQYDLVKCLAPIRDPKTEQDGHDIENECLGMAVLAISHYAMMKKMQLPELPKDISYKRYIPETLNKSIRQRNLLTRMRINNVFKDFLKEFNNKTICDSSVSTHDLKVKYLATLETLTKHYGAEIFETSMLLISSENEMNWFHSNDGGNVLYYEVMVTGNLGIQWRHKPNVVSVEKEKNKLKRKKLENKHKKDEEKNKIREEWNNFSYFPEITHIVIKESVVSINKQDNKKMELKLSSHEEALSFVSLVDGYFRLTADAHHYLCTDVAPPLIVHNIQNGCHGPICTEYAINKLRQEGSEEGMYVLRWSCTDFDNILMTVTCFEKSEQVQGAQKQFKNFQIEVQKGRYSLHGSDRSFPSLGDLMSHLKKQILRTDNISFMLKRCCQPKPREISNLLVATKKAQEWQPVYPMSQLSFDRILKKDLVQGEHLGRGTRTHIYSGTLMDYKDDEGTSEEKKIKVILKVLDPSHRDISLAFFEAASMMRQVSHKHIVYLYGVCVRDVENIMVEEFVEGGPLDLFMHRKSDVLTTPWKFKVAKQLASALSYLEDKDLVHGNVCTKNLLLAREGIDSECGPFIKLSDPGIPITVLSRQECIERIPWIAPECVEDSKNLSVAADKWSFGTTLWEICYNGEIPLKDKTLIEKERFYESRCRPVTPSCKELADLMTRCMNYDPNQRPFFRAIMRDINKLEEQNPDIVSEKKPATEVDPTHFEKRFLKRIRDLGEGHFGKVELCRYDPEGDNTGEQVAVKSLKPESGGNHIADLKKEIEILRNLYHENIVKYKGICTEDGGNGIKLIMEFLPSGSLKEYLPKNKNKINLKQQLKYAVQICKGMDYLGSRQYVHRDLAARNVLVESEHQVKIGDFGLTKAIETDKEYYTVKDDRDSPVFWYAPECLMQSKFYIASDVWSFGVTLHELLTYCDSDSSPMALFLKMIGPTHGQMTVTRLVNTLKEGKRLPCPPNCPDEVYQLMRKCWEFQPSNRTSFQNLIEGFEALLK
Sequence of JAK3 (P52333 whole entry): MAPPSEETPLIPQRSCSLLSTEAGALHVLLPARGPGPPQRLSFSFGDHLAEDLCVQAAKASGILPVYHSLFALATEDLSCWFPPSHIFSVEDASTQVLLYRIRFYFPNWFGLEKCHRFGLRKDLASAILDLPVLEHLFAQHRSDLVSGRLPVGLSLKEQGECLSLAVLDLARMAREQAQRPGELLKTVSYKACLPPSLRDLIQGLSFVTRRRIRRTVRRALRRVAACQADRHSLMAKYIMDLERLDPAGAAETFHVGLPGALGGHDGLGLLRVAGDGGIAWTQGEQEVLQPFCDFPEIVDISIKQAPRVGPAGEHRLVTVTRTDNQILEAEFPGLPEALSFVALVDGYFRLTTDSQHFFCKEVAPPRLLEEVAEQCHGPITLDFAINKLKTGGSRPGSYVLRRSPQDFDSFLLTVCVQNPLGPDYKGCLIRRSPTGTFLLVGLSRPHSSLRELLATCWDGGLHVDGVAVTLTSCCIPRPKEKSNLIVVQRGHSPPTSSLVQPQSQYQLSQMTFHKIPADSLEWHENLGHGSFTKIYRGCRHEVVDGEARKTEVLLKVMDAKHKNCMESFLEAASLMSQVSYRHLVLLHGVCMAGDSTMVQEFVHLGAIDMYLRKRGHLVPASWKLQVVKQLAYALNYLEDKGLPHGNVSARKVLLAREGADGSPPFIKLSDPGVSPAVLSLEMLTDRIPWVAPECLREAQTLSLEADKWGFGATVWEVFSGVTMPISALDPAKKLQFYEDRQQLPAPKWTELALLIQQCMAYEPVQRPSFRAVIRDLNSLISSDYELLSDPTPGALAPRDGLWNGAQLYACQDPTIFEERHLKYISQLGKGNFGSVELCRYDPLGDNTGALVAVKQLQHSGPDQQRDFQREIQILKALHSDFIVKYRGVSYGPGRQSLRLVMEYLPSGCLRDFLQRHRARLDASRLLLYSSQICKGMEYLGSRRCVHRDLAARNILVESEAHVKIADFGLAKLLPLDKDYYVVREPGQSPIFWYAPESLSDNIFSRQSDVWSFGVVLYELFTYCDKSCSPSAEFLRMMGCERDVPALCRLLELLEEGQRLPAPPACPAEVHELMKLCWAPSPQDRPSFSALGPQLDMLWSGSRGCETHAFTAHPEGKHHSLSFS
Sequence of Tyk2 (P29597 whole entry): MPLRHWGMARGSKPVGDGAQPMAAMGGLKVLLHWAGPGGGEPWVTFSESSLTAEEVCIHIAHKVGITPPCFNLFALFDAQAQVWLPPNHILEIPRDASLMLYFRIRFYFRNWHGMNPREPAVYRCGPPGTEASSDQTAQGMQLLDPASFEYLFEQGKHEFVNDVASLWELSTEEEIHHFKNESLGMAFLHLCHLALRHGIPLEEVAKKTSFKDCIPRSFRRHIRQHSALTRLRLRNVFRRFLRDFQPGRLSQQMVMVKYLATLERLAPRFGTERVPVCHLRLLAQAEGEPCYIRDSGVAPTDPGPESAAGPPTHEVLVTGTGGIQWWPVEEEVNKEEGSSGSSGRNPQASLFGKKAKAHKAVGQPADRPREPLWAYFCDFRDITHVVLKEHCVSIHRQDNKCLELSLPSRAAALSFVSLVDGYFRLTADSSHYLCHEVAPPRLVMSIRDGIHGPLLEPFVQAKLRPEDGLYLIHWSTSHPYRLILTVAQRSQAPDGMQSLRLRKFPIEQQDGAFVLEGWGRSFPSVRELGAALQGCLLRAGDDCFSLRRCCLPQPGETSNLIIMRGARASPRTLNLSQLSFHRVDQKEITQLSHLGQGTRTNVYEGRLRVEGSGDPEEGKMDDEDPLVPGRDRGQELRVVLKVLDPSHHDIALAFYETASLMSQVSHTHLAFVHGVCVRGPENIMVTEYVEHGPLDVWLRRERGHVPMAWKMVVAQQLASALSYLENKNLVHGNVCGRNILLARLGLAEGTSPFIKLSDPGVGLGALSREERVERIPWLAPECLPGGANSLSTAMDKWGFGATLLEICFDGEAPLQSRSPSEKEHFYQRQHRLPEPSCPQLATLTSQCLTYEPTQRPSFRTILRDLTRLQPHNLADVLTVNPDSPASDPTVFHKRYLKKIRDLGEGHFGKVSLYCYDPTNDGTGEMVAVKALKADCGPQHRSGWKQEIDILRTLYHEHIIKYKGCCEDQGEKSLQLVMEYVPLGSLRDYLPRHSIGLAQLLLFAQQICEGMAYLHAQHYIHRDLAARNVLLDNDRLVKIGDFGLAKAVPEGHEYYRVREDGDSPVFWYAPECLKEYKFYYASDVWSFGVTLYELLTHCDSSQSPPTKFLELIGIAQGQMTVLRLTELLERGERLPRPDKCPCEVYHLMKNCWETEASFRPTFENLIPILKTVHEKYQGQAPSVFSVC

SMILES	Caco Kp 10^−6 cm/sec (Caco-2 cell monolayers)	Ki (JAK3) [µM]	JAK3 (pKi)-JAK1 (pKi) (JAK3)	Tyk 2 (pKi) (Tyk2)	IC50 [1] [µM]	JAK 1 (pKi) (JAK1)	JAK 2 (pKi) (JAK2)	JAK 3 (pKi) (JAK3)
C=CC(=O)N1CC(COc2cc(-c3ccc(O)cc3CC)cn3cncc23)C1 [Example 21]	B (B represents a value between 5×10^−6 and 10×10^−6 cm/sec)	0.0001 to 0.001	A (A represents a value of 3 or above)	E (E represents a pKi value of 7 or below (Ki of 100 nM or above))	0.0316 to 0.2	E (E represents a pKi value of 7 or below (Ki of 100 nM or above))	E (E represents a pKi value of 7 or below (Ki of 100 nM or above))	–
C=CC(=O)N1CC2(CCC2Oc2cc(-c3ccc(O)cc3)cn3cncc23)C1 (stereo not drawn) [Example 3, 1-(5-((6-(4-hydroxyphenyl)imidazo[1,5-a]pyridin-8-yl)oxy)-2-azaspiro[3.3]heptan-2-yl)prop-2-en-1-one]	–	0.0001 to 0.001	A (A represents a value of 3 or above)	E (E represents a pKi value of 7 or below (Ki of 100 nM or above))	0.0316 to 0.2	E (E represents a pKi value of 7 or below (Ki of 100 nM or above))	E (E represents a pKi value of 7 or below (Ki of 100 nM or above))	–
C=CC(=O)N1CCC[C@H](Oc2cc(-c3ccc(O)cc3)cn3cncc23)C1 [Example 27]	–	0.0001 to 0.001	A (A represents a value of 3 or above)	E (E represents a pKi value of 7 or below (Ki of 100 nM or above))	0.2 to 1	E (E represents a pKi value of 7 or below (Ki of 100 nM or above))	E (E represents a pKi value of 7 or below (Ki of 100 nM or above))	–
C=CC(=O)N1CC[C@H](Oc2cc(-c3ccc(O)cc3)cn3cncc23)C1 [Example 1, (S)-1-(3-((6-(4-hydroxyphenyl)imidazo[1,5-a]pyridin-8-yl)oxy)pyrrolidin-1-yl)prop-2-en-1-one]	–	0.0001 to 0.001	A (A represents a value of 3 or above)	E (E represents a pKi value of 7 or below (Ki of 100 nM or above))	0.2 to 1	E (E represents a pKi value of 7 or below (Ki of 100 nM or above))	E (E represents a pKi value of 7 or below (Ki of 100 nM or above))	–
C=CC(=O)N1CCC(COc2cc(-c3ccc(O)cc3)cn3cncc23)CC1 [Example 2, 1-(4-(((6-(4-hydroxyphenyl)imidazo[1,5-a]pyridin-8-yl)oxy)methyl)piperidin-1-yl)prop-2-en-1-one]	C (C represents a value between 10×10^−6 and 25×10^−6 cm/sec)	0.0001 to 0.001	A (A represents a value of 3 or above)	E (E represents a pKi value of 7 or below (Ki of 100 nM or above))	0.2 to 1	E (E represents a pKi value of 7 or below (Ki of 100 nM or above))	E (E represents a pKi value of 7 or below (Ki of 100 nM or above))	–
C=CC(=O)N1CC[C@H](COc2cc(-c3ccc(O)cc3)cn3cncc23)C1 [Example 26]	–	0.0001 to 0.001	A (A represents a value of 3 or above)	E (E represents a pKi value of 7 or below (Ki of 100 nM or above))	0.2 to 1	E (E represents a pKi value of 7 or below (Ki of 100 nM or above))	E (E represents a pKi value of 7 or below (Ki of 100 nM or above))	–
C=CC(=O)N1CC[C@@H](Oc2cc(-c3ccc(O)cc3)cn3cncc23)C[C@@H]1C [Example 39]	–	–	A (A represents a value of 3 or above)	E (E represents a pKi value of 7 or below (Ki of 100 nM or above))	0.0316 to 0.2	E (E represents a pKi value of 7 or below (Ki of 100 nM or above))	E (E represents a pKi value of 7 or below (Ki of 100 nM or above))	A (A represents a pKi value≥10 (Ki≤0.1 nM))
C=CC(=O)N1CC(COc2cc(-c3cc(Cl)c(O)c(Cl)c3)cn3cncc23)C1 [Example 33]	A (A represents a value below 5×10^−6 cm/sec)	–	A (A represents a value of 3 or above)	–	0.0316 to 0.2	E (E represents a pKi value of 7 or below (Ki of 100 nM or above))	–	A (A represents a pKi value≥10 (Ki≤0.1 nM))
C=CC(=O)N1CC(COc2cc(-c3ccc(O)cc3C)cn3cncc23)C1 [Example 44]	–	0.0001 to 0.001	A (A represents a value of 3 or above)	E (E represents a pKi value of 7 or below (Ki of 100 nM or above))	0.0316 to 0.2	E (E represents a pKi value of 7 or below (Ki of 100 nM or above))	E (E represents a pKi value of 7 or below (Ki of 100 nM or above))	–
C=CC(=O)N1CC2(CC(Oc3cc(-c4ccc(O)cc4)cn4cncc34)C2)C1 [Example 37]	–	0.0001 to 0.001	A (A represents a value of 3 or above)	E (E represents a pKi value of 7 or below (Ki of 100 nM or above))	0.2 to 1	E (E represents a pKi value of 7 or below (Ki of 100 nM or above))	E (E represents a pKi value of 7 or below (Ki of 100 nM or above))	–
CN(C)C/C=C/C(=O)N1CC(COc2cc(-c3ccc(O)c(Cl)c3)cn3cncc23)C1 [Example 23]	–	0.0001 to 0.001	A (A represents a value of 3 or above)	E (E represents a pKi value of 7 or below (Ki of 100 nM or above))	0.2 to 1	E (E represents a pKi value of 7 or below (Ki of 100 nM or above))	E (E represents a pKi value of 7 or below (Ki of 100 nM or above))	–
C=CC(=O)N1CCC(Nc2cc(-c3ccc(O)cc3)cn3cncc23)CC1 [Example 4, 1-(4-((6-(4-hydroxyphenyl)imidazo[1,5-a]pyridin-8-yl)amino)piperidin-1-yl)prop-2-en-1-one]	–	0.001 to 0.01	B (B represents a value of 2.3 to 3)	E (E represents a pKi value of 7 or below (Ki of 100 nM or above))	–	E (E represents a pKi value of 7 or below (Ki of 100 nM or above))	E (E represents a pKi value of 7 or below (Ki of 100 nM or above))	–
C=CC(=O)N1CC[C@@H](Oc2cc(-c3ccc(O)cc3)cn3cncc23)[C@@H](C)C1 [Example 41]	–	–	A (A represents a value of 3 or above)	E (E represents a pKi value of 7 or below (Ki of 100 nM or above))	0.0316 to 0.2	E (E represents a pKi value of 7 or below (Ki of 100 nM or above))	E (E represents a pKi value of 7 or below (Ki of 100 nM or above))	A (A represents a pKi value≥10 (Ki≤0.1 nM))
